# Assay results as given in patent US10005767B2, “Compositions and methods for inhibition of the JAK pathway” (Rigel Pharmaceuticals, Inc., priority 2009, dated 2018).
# Where two headings read alike, the source gives them in different places.
# Test system: human primary T-cells, IL-2 stimulated proliferation (JAK-1 and JAK-3 dependent; reported as JAK3 activity)
# Assay: Human primary T-cell proliferation stimulated by IL-2 (Example 3)
# Format: cell-based
# Settings: tested under conditions described in Example 3 (IL-2 stimulated human primary T-cell proliferation), read-out: ability to inhibit JAK3 activity, IC50 range (Table V)
# Method in brief: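 Peripheral-blood human T-cells pre-activated via TCR/CD28, IL-2-starved overnight, then cultured 72 h at 37 °C with compound in Yssel's medium containing IL-2 (80 U/mL in cell suspension). Proliferation read as viable-cell ATP by CellTiter-Glo luminescence; reduction versus control taken as JAK pathway inhibition.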
Compound,"IC50 (Homo sapiens, T-cell)",IC50
"Cc1cnc(Nc2cnc(C3CC4CCC(C3)N4CC3CC3)c(C)c2)nc1Nc1ccc2oc(=O)[nH]c2c1 (stereo not drawn) [II-67, 5-(2-(6-(8-(cyclopropylmethyl)-8-aza-bicyclo[3.2.1]octan-3-yl)-5-methylpyridin-3-ylamino)-5-methylpyrimidin-4-ylamino)benzo[d]oxazol-2(3H)-one]",< 500 nM,
Cn1c(=O)oc2cc(Nc3nc(Nc4ccc(S(C)(=O)=O)cc4)ncc3F)ccc21 [Compound I-60],,> 10000 nM
"Cc1ccc(Nc2ncc(C)c(Nc3ccc4oc(=O)[nH]c4c3)n2)cc1S(C)(=O)=O [Compound I-239, 5-(5-methyl-2-(4-methyl-3-(methylsulfonyl)phenylamino)pyrimidin-4-ylamino)benzo[d]oxazol-2(3H)-one]",< 500 nM,
"Cc1cnc(Nc2ccc3c(c2)CCC(=O)N3)nc1Nc1ccc2oc(=O)[nH]c2c1 [IV-33, 5-(5-methyl-2-(2-oxo-1,2,3,4-tetrahydroquinolin-6-ylamino)pyrimidin-4-ylamino)benzo[d]oxazol-2(3H)-one]",< 500 nM,
"Cc1cnc(Nc2cc(F)c(F)c(F)c2)nc1Nc1ccc2oc(=O)[nH]c2c1 [Compound I-408, 5-methyl-N4-(2-oxo-2,3-dihydro-1,3-benzoxazol-5-yl)-N2-(3,4,5-trifluoro)phenyl-2,4-pyrimidinediamine]",,< 500 nM
"Cc1cnc(Nc2ccccc2F)nc1Nc1ccc2oc(=O)[nH]c2c1 [Compound I-468, 5-[2-(2-Fluoro-phenylamino)-5-methyl-pyrimidin-4-ylamino]-3H-benzooxazol-2-one]",< 500 nM,
"Cc1cnc(Nc2ccc(C#N)cc2)nc1Nc1ccc2[nH]c(=O)[nH]c2c1 [Compound I-29, N4-(benzimidazolin-2-on-5-yl)-N2-(4-cyanophenyl)-5-methylpyrimidine-2,4-diamine]",,> 10000 nM
"Cc1cc(Nc2ncc(C)c(Nc3ccc4oc(=O)[nH]c4c3)n2)ccc1C(C)C [Compound I-166, 5-[2-(4-Isopropyl-3-methyl-phenylamino)-5-methyl-pyrimidin-4-ylamino]-3H-benzooxazol-2-one]",< 500 nM,
"Cc1cnc(Nc2ccc(NC3CCNCC3)nc2)nc1Nc1ccc2oc(=O)[nH]c2c1 [II-36, N4-(benzo[d]oxazol-2(3H)-on-5-yl)-N2-[2-(1H-piperidin-4-yl)aminopyridin-5-yl]-5-methylpyrimidine-2,4-diamine]",,< 500 nM
"Cc1cc(Nc2ncc(C)c(Nc3ccc4oc(=O)[nH]c4c3)n2)cc(OC(F)F)c1 [Compound I-516, N2-(3-difluoromethoxy-5-methyl)phenyl-5-methyl-N4-(2-oxo-2,3-dihydro-1,3-benzoxazol-5-yl)-2,4-pyrimidinediamine]",,< 500 nM
"Cc1cnc(Nc2ccc3c(c2)CCC(N2CCCC2)CC3)nc1Nc1ccc2oc(=O)[nH]c2c1 (stereo not drawn) [IV-1, N4-(benzo[d]oxazol-2(3H)-on-5-yl)-N2-(7-(pyrrolidin-1-yl)-6,7,8,9-tetrahydro-5H-benzo[7]annulen-2-yl)-5-methylpyrimidine-2,4-diamine]",< 500 nM,
"Cc1cnc(Nc2ccc(S(N)(=O)=O)cc2)nc1Nc1ccc2c(c1)n(C)c(=O)n2C [Compound I-35, N4-(1,3-dimethylbenzimidazolin-2-on-5-yl)-N2-((4-aminosulfonyl)phenyl)-5-methylpyrimidine-2,4-diamine]",,> 10000 nM
"Cc1cnc(Nc2ccc(OCCC(C)C)cc2)nc1Nc1ccc2oc(=O)[nH]c2c1 [Compound I-197, 5-{5-Methyl-2-[4-(3-methyl-butoxy)-phenylamino]-pyrimidin-4-ylamino}-3H-benzooxazol-2-one]",> 10000 nM,
"Cc1cnc(Nc2ccc3c(c2)CN(S(C)(=O)=O)C3)nc1Nc1ccc2oc(=O)[nH]c2c1 [III-14, 5-[2-(2-Methanesulfonyl-2,3-dihydro-1H-isoindol-5-ylamino)-5-methyl-pyrimidin-4-ylamino]-3H-benzooxazol-2-one]",< 500 nM,
"Cc1ccc(Nc2ncc(C)c(Nc3ccc4oc(=O)[nH]c4c3)n2)cc1C#N [Compound I-131, 2-Methyl-5-[5-methyl-4-(2-oxo-2,3-dihydro-benzooxazol-5-ylamino)-pyrimidin-2-ylamino]-benzonitrile]",< 500 nM,
